Experimental data: PMC10404681, “Intrinsic catalytic properties of histone H3 lysine-9 methyltransferases preserve monomethylation levels under low S-adenosylmethionine” (The Journal of Biological Chemistry, 2023)

Tests used:
EHMT1 catalytic domain = target: T1, EHMT1 catalytic domain (Homo sapiens, UniProt Q9H9B1); assay: Radiometric EZ-tip methyltransferase assay, steady-state kinetics, EHMT1; type: biochemical, H. sapiens; conditions: SAM varied 0.1–100 μM, EHMT1 25 nM, pH 7.9, 30 °C, n = 3, SD
T1 construct: EHMT1 = 982 to 1266; host or cells: Rosetta E. coli
T1 sequence (Q9H9B1 982-1266): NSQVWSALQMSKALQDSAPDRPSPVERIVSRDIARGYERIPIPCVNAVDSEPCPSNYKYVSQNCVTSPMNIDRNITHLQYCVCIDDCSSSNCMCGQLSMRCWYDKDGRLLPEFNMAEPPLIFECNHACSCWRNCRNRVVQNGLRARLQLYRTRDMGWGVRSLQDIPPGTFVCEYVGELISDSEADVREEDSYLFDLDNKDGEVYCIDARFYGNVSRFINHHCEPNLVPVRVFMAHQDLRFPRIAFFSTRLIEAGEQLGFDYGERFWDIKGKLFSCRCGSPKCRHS
From the text: (§1) The H. sapiens EHMT1 catalytic subunit (Addgene plasmid #51314) and H. sapiens SUV39H2 catalytic subunit (Addgene plasmid #25115) E. coli expression plasmids used in this study were acquired from Addgene, made possible through a gift by Cheryl Arrowsmith. The H. sapiens EHMT2 catalytic subunit E. coli expression plasmid used in this study was provided by the laboratory of Peter W. Lewis at the University of Wisconsin-Madison. All remaining histone methyltransferase expression plasmids were generated for this study and will be made freely available from Addgene.
(§2) Michaelis-Menten saturation curves were generated under steady-state conditions with the non-titrated component concentration being present at ≥5× KM specific to each enzyme. 1 × 10^5 CPM values were provided by [methyl-^3H] SAM in each reaction. Reaction times and enzyme concentrations were optimized for each HMT to ensure substrate turnover remained below 20%. […] Enzyme concentrations are calculated for the monomeric form. Reactions were incubated at 30 °C for 20 min before quenching with TFA for a final concentration of 2% v/v TFA. […] The eluates were added to 2 ml of Ultima Gold LSC Cocktail (Sigma-Aldrich) and counted on a scintillation counter (PerkinElmer). […]

EHMT2 catalytic domain = target: T2, EHMT2 catalytic domain (Homo sapiens, UniProt Q96KQ7); assay: Radiometric EZ-tip methyltransferase assay, steady-state kinetics, EHMT2; type: biochemical, H. sapiens; conditions: SAM varied 0.1–100 μM, EHMT2 25 nM, pH 7.9, 30 °C, n = 3, SD
T2 construct: EHMT2 = 913 to 1193; made in house; host or cells: Rosetta E. coli (plasmid from the laboratory of Peter W. Lewis)
T2 sequence (Q96KQ7 913-1193): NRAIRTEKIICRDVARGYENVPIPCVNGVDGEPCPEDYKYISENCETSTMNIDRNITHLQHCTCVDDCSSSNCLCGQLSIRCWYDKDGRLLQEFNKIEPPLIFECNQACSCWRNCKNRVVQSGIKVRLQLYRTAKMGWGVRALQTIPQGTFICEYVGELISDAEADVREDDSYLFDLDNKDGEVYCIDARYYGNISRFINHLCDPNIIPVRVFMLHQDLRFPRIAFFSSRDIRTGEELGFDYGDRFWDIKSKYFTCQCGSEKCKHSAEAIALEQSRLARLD
From the text: as §1, §2

SUV39H1 = target: T3, SUV39H1 (Homo sapiens, UniProt O43463); assay: Radiometric EZ-tip methyltransferase assay, steady-state kinetics, SUV39H1; type: biochemical; conditions: SAM varied 0.1–100 μM, SUV39H1 100 nM, pH 7.9, 30 °C, n = 3, SD
T3 construct: made in house; host or cells: Rosetta E. coli (plasmid generated for this study)
T3 sequence (O43463 1-412): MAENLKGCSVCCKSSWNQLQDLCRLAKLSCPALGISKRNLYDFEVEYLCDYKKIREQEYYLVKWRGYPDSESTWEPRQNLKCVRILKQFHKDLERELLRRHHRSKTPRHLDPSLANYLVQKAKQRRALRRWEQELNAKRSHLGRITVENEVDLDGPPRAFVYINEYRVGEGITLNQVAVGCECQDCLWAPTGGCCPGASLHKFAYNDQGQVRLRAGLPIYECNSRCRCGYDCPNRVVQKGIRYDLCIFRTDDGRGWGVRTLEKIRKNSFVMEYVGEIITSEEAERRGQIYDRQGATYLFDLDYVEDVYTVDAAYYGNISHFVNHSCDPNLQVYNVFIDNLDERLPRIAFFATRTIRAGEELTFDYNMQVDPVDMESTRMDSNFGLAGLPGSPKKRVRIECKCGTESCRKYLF
From the text: as §1, §2

SUV39H2 catalytic domain = target: T4, SUV39H2 catalytic domain (Homo sapiens, UniProt Q9H5I1); assay: Radiometric EZ-tip methyltransferase assay, steady-state kinetics, SUV39H2; type: biochemical, H. sapiens; conditions: SAM varied 0.1–100 μM, SUV39H2 25 nM, pH 7.9, 30 °C, n = 3, SD
T4 construct: host or cells: Rosetta E. coli
From the text: as §1, §2

[1] = fixed H3K9me1 peptide H3(1–17) 50 μM
[2] = fixed H3K9un peptide H3(1–17) 50 μM

T4 sequence (Q9H5I1 162-410): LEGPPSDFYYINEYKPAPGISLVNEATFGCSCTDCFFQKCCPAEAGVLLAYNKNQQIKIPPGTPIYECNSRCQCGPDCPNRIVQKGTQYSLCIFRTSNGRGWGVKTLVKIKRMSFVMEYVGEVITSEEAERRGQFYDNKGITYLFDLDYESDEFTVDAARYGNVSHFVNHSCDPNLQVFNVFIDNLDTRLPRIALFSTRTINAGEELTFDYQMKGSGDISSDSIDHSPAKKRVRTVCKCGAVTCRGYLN

With C[S+](CC[C@H](N)C(=O)[O-])C[C@H]1O[C@@H](n2cnc3c(N)ncnc32)[C@H](O)[C@@H]1O (some centres unmarked) [SAM, S-adenosylmethionine] the “kcat/KM, SAM” value (EHMT1 catalytic domain; [1]) was 5000 M⁻¹ s⁻¹, the “kcat/KM, SAM” value (EHMT1 catalytic domain; [2]) was 16800 M⁻¹ s⁻¹ and the “kcat/KM, SAM” value (EHMT2 catalytic domain; [1]) was 2170 M⁻¹ s⁻¹. The “kcat/KM, SAM” value (EHMT2 catalytic domain; [2]) was 6670 M⁻¹ s⁻¹, the “kcat/KM, SAM” value (SUV39H1; [1]) was 500 M⁻¹ s⁻¹ and the “kcat/KM, SAM” value (SUV39H1; [2]) was 1670 M⁻¹ s⁻¹. The “kcat/KM, SAM” value (SUV39H2 catalytic domain; [1]) was 6000 M⁻¹ s⁻¹ and the “kcat/KM, SAM” value (SUV39H2 catalytic domain; [2]) was 14300 M⁻¹ s⁻¹.
